Assay results from PubChem BioAssay (NCI).
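Tested at 5 concentrations; 48 h exposure; 96-well plates; endpoints linearly interpolated, else capped at highest concentration. TGI is the concentration that stops growth completely.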

What was measured:
Assay in all cases: inhibition of tumour cell growth, NCI panel, 48 h
A549 NSCLC = system: A549 NSCLC
ACHN renal = system: ACHN renal
CAKI-1 renal = system: CAKI-1 renal
CCRF-CEM leukemia = system: CCRF-CEM leukemia
COLO 205 colon = system: COLO 205 colon
DLD-1 colon = system: DLD-1 colon
DMS 114 small cell lung = system: DMS 114 small cell lung
DMS 273 small cell lung = system: DMS 273 small cell lung
EKVX NSCLC = system: EKVX NSCLC
HCC-2998 colon = system: HCC-2998 colon
HCT-116 colon = system: HCT-116 colon
HCT-15 colon = system: HCT-15 colon
HL-60(TB) leukemia = system: HL-60(TB) leukemia
HOP-18 NSCLC = system: HOP-18 NSCLC
HOP-62 NSCLC = system: HOP-62 NSCLC
HOP-92 NSCLC = system: HOP-92 NSCLC
HT29 colon = system: HT29 colon
IGROV1 ovarian = system: IGROV1 ovarian
K-562 leukemia = system: K-562 leukemia
KM12 colon = system: KM12 colon
KM20L2 colon = system: KM20L2 colon
LOX IMVI melanoma = system: LOX IMVI melanoma
LXFL 529 NSCLC = system: LXFL 529 NSCLC
M14 melanoma = system: M14 melanoma
M19-MEL melanoma = system: M19-MEL melanoma
MALME-3M melanoma = system: MALME-3M melanoma
MOLT-4 leukemia = system: MOLT-4 leukemia
NCI-H226 lung = system: NCI-H226 lung
NCI-H23 lung = system: NCI-H23 lung
NCI-H460 lung = system: NCI-H460 lung
NCI-H522 lung = system: NCI-H522 lung
OVCAR-3 ovarian = system: OVCAR-3 ovarian
OVCAR-4 ovarian = system: OVCAR-4 ovarian
OVCAR-5 ovarian = system: OVCAR-5 ovarian
OVCAR-8 ovarian = system: OVCAR-8 ovarian
RPMI-8226 leukemia = system: RPMI-8226 leukemia
RXF 393 renal = system: RXF 393 renal
SF-268 CNS = system: SF-268 CNS
SF-539 CNS = system: SF-539 CNS
SK-MEL-2 melanoma = system: SK-MEL-2 melanoma
SK-MEL-28 melanoma = system: SK-MEL-28 melanoma
SK-MEL-5 melanoma = system: SK-MEL-5 melanoma
SK-OV-3 ovarian = system: SK-OV-3 ovarian
SN12C renal = system: SN12C renal
SNB-19 CNS = system: SNB-19 CNS
SR leukemia = system: SR leukemia
SW-620 colon = system: SW-620 colon
TK-10 renal = system: TK-10 renal
U251 CNS = system: U251 CNS
UACC-62 melanoma = system: UACC-62 melanoma
UO-31 renal = system: UO-31 renal
XF 498 CNS = system: XF 498 CNS

Compound `CCC(=C(C#N)C#N)c1cc(OC)c(OC)c(OC)c1` has a TGI (A549 NSCLC) greater than 100 µM, a TGI (ACHN renal) greater than 100 µM and a TGI (CAKI-1 renal) greater than 100 µM. The TGI (CCRF-CEM leukemia) was greater than 100 µM, the TGI (COLO 205 colon) was greater than 100 µM and the TGI (DLD-1 colon) was greater than 100 µM. The TGI (DMS 114 small cell lung) was greater than 100 µM, the TGI (DMS 273 small cell lung) was greater than 100 µM and the TGI (EKVX NSCLC) was greater than 100 µM. It also gave a TGI (HCC-2998 colon) greater than 100 µM, a TGI (HCT-116 colon) greater than 100 µM and a TGI (HCT-15 colon) greater than 100 µM. For the same compound, the TGI (HL-60(TB) leukemia) was 44.5 µM, the TGI (HOP-18 NSCLC) was greater than 100 µM and the TGI (HOP-62 NSCLC) was greater than 100 µM. For the same compound, the TGI (HOP-92 NSCLC) was greater than 100 µM, the TGI (HT29 colon) was greater than 100 µM and the TGI (IGROV1 ovarian) was greater than 100 µM. For the same compound, the TGI (K-562 leukemia) was greater than 100 µM, the TGI (KM12 colon) was greater than 100 µM and the TGI (KM20L2 colon) was greater than 100 µM. It also gave a TGI (LOX IMVI melanoma) greater than 100 µM, a TGI (LXFL 529 NSCLC) greater than 100 µM and a TGI (M14 melanoma) greater than 100 µM. For the same compound, the TGI (M19-MEL melanoma) was greater than 100 µM, the TGI (MALME-3M melanoma) was greater than 100 µM and the TGI (MOLT-4 leukemia) was greater than 100 µM. The TGI (NCI-H226 lung) was greater than 100 µM, the TGI (NCI-H23 lung) was greater than 100 µM and the TGI (NCI-H460 lung) was greater than 100 µM. The TGI (NCI-H522 lung) was greater than 100 µM, the TGI (OVCAR-3 ovarian) was greater than 100 µM and the TGI (OVCAR-4 ovarian) was greater than 100 µM. For the same compound, the TGI (OVCAR-5 ovarian) was greater than 100 µM, the TGI (OVCAR-8 ovarian) was greater than 100 µM and the TGI (RPMI-8226 leukemia) was 35.6 µM. It also gave a TGI (RXF 393 renal) greater than 100 µM, a TGI (SF-268 CNS) greater than 100 µM and a TGI (SF-539 CNS) greater than 100 µM. For the same compound, the TGI (SK-MEL-2 melanoma) was greater than 100 µM, the TGI (SK-MEL-28 melanoma) was greater than 100 µM and the TGI (SK-MEL-5 melanoma) was greater than 100 µM. The TGI (SK-OV-3 ovarian) was greater than 100 µM, the TGI (SN12C renal) was greater than 100 µM and the TGI (SNB-19 CNS) was greater than 100 µM. It also gave a TGI (SR leukemia) greater than 100 µM, a TGI (SW-620 colon) greater than 100 µM and a TGI (TK-10 renal) greater than 100 µM. The TGI (U251 CNS) was greater than 100 µM, the TGI (UACC-62 melanoma) was greater than 100 µM and the TGI (UO-31 renal) was greater than 100 µM. For the same compound, the TGI (XF 498 CNS) was greater than 100 µM.
